# Measurements as given in ChEMBL document CHEMBL1201862, “PubChem BioAssay data set” (2004).
# Calls of active or inactive are those of the source.
# Experiments:
# [1] = IOSE-T80 ovarian epithelial cell cytotoxicity, dose response, cytotoxicity control for PAX8 inhibitor project, plate reader, dry powder samples (AID 743045); type: functional, cell-based
# [2] = P. falciparum 3D7-ScDHODH growth inhibitors, dose response, SYBR Green, dry powder samples (AID 1159570); type: functional, cell-based;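 further: parasite growth measured after 72 hours of compound exposure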
# [3] = MC4R antagonists, dose response, counter-screen for LGR2 antagonist project, cell-based, plate reader, cherry pick (AID 743444); type: functional;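 further: transfected HEK 293 cells stimulated with alpha-MSH peptide; potency of inhibitors of the alpha-MSH evoked signal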
# [4] = NIH:OVCAR-3 ovarian cancer cell cytotoxicity, dose response, PAX8 inhibitor project, plate reader, dry powder samples (AID 743044); type: functional, cell-based
# [5] = HepG2 cell cytotoxicity, dose response, cytotoxicity control, plate reader, cherry-pick, antagonist series (AID 743416); type: functional, cell-based
# [6] = P. falciparum ATP4 D1247Y mutant growth inhibitors, dose response, NITD609-resistant line, SYBR Green, dry powder (AID 1159571); type: functional, cell-based;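 further: parasites synchronized at ring stage by sorbitol before testing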
# [7] = P. falciparum Dd2 growth inhibitors, dose response, SYBR Green, dry powder samples, set 9 (AID 1159568); type: functional, cell-based
# [8] = HEK293 cell cytotoxicity, dose response, cytotoxicity control, plate reader, cherry-picked samples (AID 743446); type: functional, cell-based
# [9] = IGROV1 ovarian cancer cell cytotoxicity, dose response, PAX8 inhibitor project, plate reader, dry powder samples (AID 743043); type: functional, cell-based; details: IGROV-1
# [10] = P. falciparum Dd2 growth inhibitors, dose response, SYBR Green, cherry-picked samples (AID 1159567); type: functional, cell-based
# [11] = P. falciparum Dd2 growth inhibitors, dose response, SYBR Green, dry powder samples (AID 1159566); type: functional, cell-based;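 further: potency for growth inhibition with lower SYBR green DNA signal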
# Paired box protein Pax-8 = Paired box protein Pax-8 (Homo sapiens, UniProt Q06710); test: inhibitors of PAX8-driven TPO luciferase reporter, dose response, RMG-I cells, cherry-pick (AID 687027); type: functional, cell-based;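 further: luciferase reporter driven by Pax8 target thyroperoxidase promoter measured by SteadyGlo luminescence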
# Sequence of Paired box protein Pax-8 (Q06710 whole entry): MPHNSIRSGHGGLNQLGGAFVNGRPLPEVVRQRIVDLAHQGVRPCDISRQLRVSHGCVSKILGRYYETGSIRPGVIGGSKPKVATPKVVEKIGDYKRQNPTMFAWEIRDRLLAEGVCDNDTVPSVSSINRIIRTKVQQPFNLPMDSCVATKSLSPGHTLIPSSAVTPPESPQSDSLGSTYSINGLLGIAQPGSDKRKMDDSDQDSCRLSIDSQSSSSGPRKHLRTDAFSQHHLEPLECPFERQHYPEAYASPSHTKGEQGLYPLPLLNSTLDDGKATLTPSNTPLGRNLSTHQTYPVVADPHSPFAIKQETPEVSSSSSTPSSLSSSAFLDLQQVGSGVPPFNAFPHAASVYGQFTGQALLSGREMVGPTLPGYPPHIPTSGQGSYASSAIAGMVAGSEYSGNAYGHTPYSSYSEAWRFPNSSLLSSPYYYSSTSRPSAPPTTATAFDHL
# [12] = A2780 ovarian cancer cell cytotoxicity, dose response, cytotoxicity control, plate reader, dry powder samples (AID 743046); type: functional, cell-based
# [13] = HepG2 cell cytotoxicity, dose response, cytotoxicity control, plate reader, dry powder samples (AID 1159569); type: functional, cell-based;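 further: inhibitor potency with signal falling toward the positive control level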
# [14] = A549 cell cytotoxicity, dose response, cytotoxicity control, plate reader, cherry-pick, antagonist series (AID 743412); type: functional, cell-based
# [15] = LGR2 antagonists, dose response, cell-based, HEK293, CRE-luciferase reporter, cherry pick, set 2 (AID 743343); type: functional;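 further: transfected cells were stimulated with diluted bursicon conditioned medium after compound addition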
# [16] = cytotoxicity in OVCAR8 ovarian cancer cells, dose response, PAX8 project, cell-based, plate reader, dry powder samples (AID 743197); type: functional; details: OVCAR-8
# [17] = biological target: NAD-dependent protein deacylase sirtuin-5, mitochondrial (Homo sapiens, UniProt Q9NXA8); test: SIRT5 desuccinylase inhibitors, dose response, biochemical, fluorescence imaging, cherry-pick, set 5 (AID 720591);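 further: desuccinylation of succinyl peptide AMC substrate read as fluorescence after trypsin release; potency of inhibitors that lower fluorescence and may act on trypsin instead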
# Sequence of NAD-dependent protein deacylase sirtuin-5, mitochondrial (Q9NXA8 whole entry): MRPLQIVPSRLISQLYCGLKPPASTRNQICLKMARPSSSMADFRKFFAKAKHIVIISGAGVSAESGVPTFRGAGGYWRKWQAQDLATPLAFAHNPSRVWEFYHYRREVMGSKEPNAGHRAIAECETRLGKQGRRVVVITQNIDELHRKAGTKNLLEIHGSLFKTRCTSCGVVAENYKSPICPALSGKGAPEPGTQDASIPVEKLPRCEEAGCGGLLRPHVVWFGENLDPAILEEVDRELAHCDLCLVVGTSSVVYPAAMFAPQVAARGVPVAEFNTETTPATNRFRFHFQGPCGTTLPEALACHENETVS
# [18] = HepG2 cell cytotoxicity, dose response, cytotoxicity control, ATP luminescence, dry powder, Set4 (AID 743143); type: functional, cell-based
# [19] = HeLa 2N DNA content increase, dose response, cell-based, IC50 (AID 1117349); type: functional
# P388/ADR = test: cells; type: functional; details: Mus musculus
# [20] = HCT116 cell viability decrease, GSK3B pretreatment – CellTiter-Glo, IC50, dose response (AID 1117339); type: functional; details: HCT-116
# [21] = RKO cell viability reduction, dose response, CellTiter-Glo luminescence (AID 1117322); type: functional
# [22] = microbe, parasite or virus in culture; type: functional; details: Mycobacterium tuberculosis
# P388 = test: cells; type: functional; details: Mus musculus
# [23] = HeLa 4N DNA content increase, dose response, cell-based, IC50 (AID 1117351); type: functional
# SN12K1 = test: cells; type: functional; details: Homo sapiens
# [24] = cytotoxicity toward HT-29 cells – cell-based, CellTiter-Glo luminescence, IC50, dose response (AID 1117330); type: functional
# NADPH oxidase 1 [25] = biological target: T1, NADPH oxidase 1 (Homo sapiens, UniProt Q9Y5S8); test: NOX1 inhibitors, concentration-response, dose response, cell-based, luminescence, cherry picks 2 (AID 434997); type: functional
# T1 sequence (Q9Y5S8 whole entry): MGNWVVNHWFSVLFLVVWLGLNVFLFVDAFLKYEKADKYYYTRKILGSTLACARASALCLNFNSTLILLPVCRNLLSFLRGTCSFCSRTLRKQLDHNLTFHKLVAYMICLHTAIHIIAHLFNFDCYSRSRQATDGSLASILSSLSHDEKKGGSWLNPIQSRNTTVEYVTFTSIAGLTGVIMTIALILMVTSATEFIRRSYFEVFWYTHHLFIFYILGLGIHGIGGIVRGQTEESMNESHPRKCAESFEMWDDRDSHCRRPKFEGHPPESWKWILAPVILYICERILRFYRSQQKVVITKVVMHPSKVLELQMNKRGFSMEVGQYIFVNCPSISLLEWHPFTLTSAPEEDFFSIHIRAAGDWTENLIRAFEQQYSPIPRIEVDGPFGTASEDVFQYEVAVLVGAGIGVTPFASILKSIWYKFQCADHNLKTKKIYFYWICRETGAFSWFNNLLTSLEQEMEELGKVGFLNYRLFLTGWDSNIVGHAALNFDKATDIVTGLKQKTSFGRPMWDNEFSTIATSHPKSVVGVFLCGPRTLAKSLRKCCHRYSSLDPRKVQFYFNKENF
# NADPH oxidase 1 [26] = biological target: T1, NADPH oxidase 1; test: Late stage results from the probe development effort to identify inhibitors of NOX1: HEK/293 IC50. [Related pubchem assays: 1796 (Summary AID (NOX1)), 2752 (Primary screen (NOX1 inhibitors, synthesized analogs set 2)), 2664 (Primary screen (NOX1 inhibitors, synthesized analogs)), 1792 (Primary Screen (NOX1)), 2545 (Confirmation screen (NOX1 …; type: functional
# [27] = Dose-response inhibition of insulin secretion in a rat insulinoma line at 5 mM glucose (AID 1117331); type: functional, cell-based; details: INS-1E
# Estrogen receptor beta = Estrogen receptor beta (Homo sapiens, UniProt Q92731);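 further: recombinant ER-beta bound to coactivator SRC1 peptide in presence of estradiol agonist; inhibitors block coactivator peptide binding and lower the FRET signal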
# Sequence of Estrogen receptor beta (Q92731 whole entry): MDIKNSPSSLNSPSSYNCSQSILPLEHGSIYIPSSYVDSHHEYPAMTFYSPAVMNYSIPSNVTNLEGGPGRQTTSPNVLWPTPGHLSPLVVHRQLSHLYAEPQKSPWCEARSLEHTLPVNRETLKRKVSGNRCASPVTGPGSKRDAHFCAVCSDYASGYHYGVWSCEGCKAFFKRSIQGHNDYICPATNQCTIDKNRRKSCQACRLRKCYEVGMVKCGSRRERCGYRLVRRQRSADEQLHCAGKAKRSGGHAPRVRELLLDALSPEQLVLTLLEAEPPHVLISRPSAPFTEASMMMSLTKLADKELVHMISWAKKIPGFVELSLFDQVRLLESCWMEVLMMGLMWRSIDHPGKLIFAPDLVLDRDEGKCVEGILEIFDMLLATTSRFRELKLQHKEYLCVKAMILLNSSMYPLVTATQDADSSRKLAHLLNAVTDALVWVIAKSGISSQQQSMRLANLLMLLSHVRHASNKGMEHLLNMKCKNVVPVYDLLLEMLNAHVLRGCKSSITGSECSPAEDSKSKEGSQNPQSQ
# [28] = Artemis endonuclease inhibitor potency, dose response, biochemical, fluorescence intensity (AID 720701); type: functional;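 further: Artemis endonuclease enzyme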
# [29] = inhibitors of Vif binding to APOBEC3G peptide, primary screen, biochemical, TR-FRET, GST-Vif 1-94, biotin-A3G peptide, dose response retest (AID 1117319); type: functional;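 further: TR-FRET signal of purified GST-Vif binding a biotinylated A3G peptide; inhibitors lower the FRET signal by blocking Vif and A3G binding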
smiles,measurement,setting,value
O=C(C1CC1)N1C[C@@H]2N[C@H](C1)[C@@H]2c1ccc(-c2ccccc2F)cc1,AC50,[1],3.24 µM (active)
same,AC50,[2],139 nM (active)
same,AC50,[3],2.57 µM (active)
same,AC50,[4],5.96 µM (active)
same,AC50,[5],4.58 µM (active)
same,AC50,[6],225 nM (active)
same,AC50,[7],830 nM (active)
same,AC50,[8],4.12 µM (active)
same,AC50,[9],4.13 µM (active)
same,AC50,[10],584 nM (active)
same,AC50,[11],145 nM (active)
same,AC50,Paired box protein Pax-8,1.2 µM (active)
same,AC50,[12],5.34 µM (active)
same,AC50,[13],32.3 µM (active)
same,AC50,[14],1.84 µM (active)
same,AC50,[15],2.25 µM (active)
same,AC50,[16],2.72 µM (active)
CC(=O)CSc1nnc(-c2ccco2)n1-c1ccccc1,AC50,[17],> 30 µM (inactive)
O=C(CNC(=O)c1ccc(Cl)c(Cl)c1)N[C@@H]1CCCc2ccccc21,AC50,[18],> 52 µM (inactive)
CO[C@@]12[C@H](COC(N)=O)C3=C(C(=O)C(C)=C(N)C3=O)N1C[C@@H]1N[C@@H]12 [MITOMYCIN],IC50,[19],13.3 nM (active)
same,GI50,P388/ADR,1.39 µM (inactive)
same,IC50,[20],> 20 µM (inactive)
same,IC50,[21],995 nM (active)
same,CC50,[22],> 40 µM (active)
same,GI50,P388,181 nM (active)
same,IC50,[23],> 10 µM (inactive)
same,GI50,SN12K1,959 nM (active)
same,IC50,[24],2.57 µM (active)
COc1cc(-c2nc(-c3ccccc3)c(-c3ccccc3)[nH]2)ccc1O,IC50,NADPH oxidase 1 [25],370 nM (active)
same,IC50,NADPH oxidase 1 [26],1.81 µM (active)
COCCCOc1ccnc(C[S+]([O-])c2nc3ccccc3[nH]2)c1C (centres undefined) [RABEPRAZOLE SODIUM],IC50,[27],> 33.3 µM (inactive)
COc1ccc(NC(=O)CSc2nc3c(cc2C#N)CN(C)CC3)cc1,IC50,Estrogen receptor beta,> 50 µM (not active)
same,IC50,[28],> 20 µM (inactive)
same,IC50,[29],> 100 µM (active)
